Assay results published in PMC12305662, “Fragment-Based Development of Small Molecule Inhibitors Targeting Mycobacterium tuberculosis Cholesterol Metabolism” (Journal of Medicinal Chemistry, 2025).
≈ marks a conversion by molar mass, not a printed value. Read-outs that look alike come from different tables or passages of the source.

Columns and labels:
Mtb CDC1551 [1] = assay: Extracellular Mtb growth on cholesterol, MABA MIC99; assay type: cell-based, Mycobacterium tuberculosis; conditions: Mycobacterium tuberculosis, CDC1551, 336 h; cholesterol as sole carbon source; 2 weeks post-compound treatment; read-out: MABA-MIC99 (W2) CDC1551, cholesterol
Mtb CDC1551 [2] = assay: Depletion of intracellular ATP (BacTiter Glo), Mtb on cholesterol; assay type: cell-based; conditions: Mycobacterium tuberculosis, cholesterol as sole carbon source
[3] = system: Mtb H37Rv pATB45luc in THP-1 macrophages; assay: microbe, parasite or virus in culture; assay type: cell-based; conditions: Mycobacterium tuberculosis, 120 h, 5 days post-compound treatment, mean ± SD n = 2, read-out: intracellular growth Mtb IC50
CYP142 = CYP142 (Mycobacterium tuberculosis, UniProt P9WPL5)
CYP142, sequence (P9WPL5 whole entry): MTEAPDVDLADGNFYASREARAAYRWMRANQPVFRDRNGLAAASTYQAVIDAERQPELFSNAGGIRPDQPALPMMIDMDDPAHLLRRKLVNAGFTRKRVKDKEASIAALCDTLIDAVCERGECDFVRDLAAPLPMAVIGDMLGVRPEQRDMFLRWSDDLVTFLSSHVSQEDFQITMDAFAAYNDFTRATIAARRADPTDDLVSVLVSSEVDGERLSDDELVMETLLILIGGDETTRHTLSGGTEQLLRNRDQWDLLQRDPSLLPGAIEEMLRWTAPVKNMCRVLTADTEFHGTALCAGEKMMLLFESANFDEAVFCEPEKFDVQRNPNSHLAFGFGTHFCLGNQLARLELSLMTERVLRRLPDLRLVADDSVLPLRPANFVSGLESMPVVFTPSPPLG

COc1ccc(CNc2ccc(Cc3ccncc3)cc2)cc1 [5m, N-(4-Methoxybenzyl)-4-(pyridin-4-ylmethyl)aniline]
MIC99 (Mtb CDC1551 [1]): 13 µM (≈ 3.96 µg/mL) | IC50 (Mtb CDC1551 [2]; CDC1551, 168 h, 1 week post-compound treatment, read-out: ATP-IC50 (W1) CDC1551, cholesterol): 0.59 µM | IC50 (Mtb CDC1551 [2]; CDC1551, 336 h, 2 weeks post-compound treatment, read-out: ATP-IC50 (W2) CDC1551, cholesterol): 9.4 µM | IC50 [3]: 1.7 ± 0.18 µM | Kd (CYP142): 0.08 µM | ΔΔG [5m-1a], CYP142 (CYP142; proportion of binding affinity attributed to the 1a-ii hotspot): 0.2
